Test results taken from US20210045385A1, “PYRIDAZINONE-SUBSTITUTED KETOXIMES AS HERBICIDES” (FMC Corporation, priority 2018, published 2021).

Key:
Type in all cases: in vivo
rice (Oryza sativa) = test: Test D flooded paddy test, visual plant response rating; details: 250 g ai/ha, scale 0 to 100 (0 no effect, 100 complete control), 13 to 15 d
Outline: (§1)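 2-leaf plants, flooded 3 cm, cpd into paddy water; greenhouse 13–15 d; visual rating vs controls, 0 = no effect, 100 = complete control; dash = no result.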

[1] = system: sedge umbrella (small-flower umbrella sedge, Cyperus difformis); test: as above; details: 250 g ai/ha, scale 0 to 100 (0 no effect, 100 complete control), 13 to 15 d
Outline: as §1

[2] = system: duck salad (Heteranthera limosa); test: as above; details: 250 g ai/ha, scale 0 to 100 (0 no effect, 100 complete control), 13 to 15 d
Outline: as §1

[3] = system: barnyardgrass (Echinochloa crus-galli); test: as above; details: 250 g ai/ha, scale 0 to 100 (0 no effect, 100 complete control), 13 to 15 d
Outline: as §1

[4] = system: foxtail, giant (giant foxtail, Setaria faberi); test: Test C postemergence, visual plant response rating
Outline: (§2)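 Compounds in a non-phytotoxic solvent with surfactant were applied as a directed soil spray preemergence or to 2–10 cm, one- to two-leaf plants postemergence, in loam–sand soil. After about 10 d in a greenhouse, injury was visually rated against untreated controls on a 0–100 scale (100 = complete control).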

[5] = system: pigweed (Amaranthus retroflexus); test: Test C postemergence, visual plant response rating
Outline: as §2

corn (Zea mays) = test: Test C postemergence, visual plant response rating
Outline: as §2

[6] = system: blackgrass (Alopecurus myosuroides); test: Test C postemergence, visual plant response rating
Outline: as §2

kochia (Bassia scoparia) [7] = test: Test C postemergence, visual plant response rating
Outline: as §2

[8] = system: barnyardgrass (Echinochloa crus-galli); test: Test C postemergence, visual plant response rating
Outline: as §2

[9] = system: Italian ryegrass (Lolium mutiflorum); test: Test C postemergence, visual plant response rating
Outline: as §2

[10] = system: galium (catchweed bedstraw, Galium aparine); test: Test C postemergence, visual plant response rating
Outline: as §2

[11] = system: ragweed (common ragweed, Ambrosia artemisiifolia); test: Test C postemergence, visual plant response rating
Outline: as §2

[12] = system: wheat (Triticum aestivum); test: Test C postemergence, visual plant response rating
Outline: as §2

[13] = system: foxtail, giant (giant foxtail, Setaria faberi); test: Test C preemergence, visual plant response rating
Outline: as §2

[14] = system: pigweed (Amaranthus retroflexus); test: Test C preemergence, visual plant response rating
Outline: as §2

kochia (Bassia scoparia) [15] = test: Test C preemergence, visual plant response rating
Outline: as §2

[16] = system: barnyardgrass (Echinochloa crus-galli); test: Test C preemergence, visual plant response rating
Outline: as §2

[17] = system: Italian ryegrass (Lolium mutiflorum); test: Test C preemergence, visual plant response rating
Outline: as §2

[18] = Test C, postemergence, 125 g ai/ha
[19] = Test C, 31 g ai/ha, 0 is no effect, 100 is complete control

Structure (SMILES): CCON=C(c1cc(Cl)cc(Br)c1)c1c(O)c(C)nn(C)c1=O [Compound 180]
- Plant response rating, Rice (Flood) (rice (Oryza sativa)): 0
- Plant response rating, Sedge, Umbrella (Flood) [1]: 65
- Plant response rating, Ducksalad (Flood) [2]: 60
- Plant response rating, Barnyardgrass (Flood) [3]: 40
- Foxtail, Giant plant response rating (0 to 100 scale) ([4]; Postemergence, 31 g ai/ha): 70
- Foxtail, Giant plant response rating (0 to 100 scale) [4, 18]: 90
- Pigweed plant response rating (0 to 100 scale) ([5]; Postemergence, 31 g ai/ha): 10
- Pigweed plant response rating (0 to 100 scale) [5, 18]: 70
- Corn plant response rating (0 to 100 scale) (corn (Zea mays); Postemergence, 31 g ai/ha): 0
- Corn plant response rating (0 to 100 scale) (corn (Zea mays); [18]): 20
- Blackgrass plant response rating (0 to 100 scale) ([6]; Postemergence, 31 g ai/ha): 0
- Blackgrass plant response rating (0 to 100 scale) [6, 18]: 30
- Kochia plant response rating (0 to 100 scale) (kochia (Bassia scoparia) [7]; Postemergence, 31 g ai/ha): 80
- Kochia plant response rating (0 to 100 scale) (kochia (Bassia scoparia) [7]; [18]): 90
- Barnyardgrass plant response rating (0 to 100 scale) ([8]; Postemergence, 31 g ai/ha): 30
- Barnyardgrass plant response rating (0 to 100 scale) [8, 18]: 60
- Ryegrass, Italian plant response rating (0 to 100 scale) ([9]; Postemergence, 31 g ai/ha): 70
- Ryegrass, Italian plant response rating (0 to 100 scale) [9, 18]: 100
- Galium plant response rating (0 to 100 scale) ([10]; Postemergence, 31 g ai/ha): 90
- Galium plant response rating (0 to 100 scale) [10, 18]: 100
- Ragweed plant response rating (0 to 100 scale) ([11]; Postemergence, 31 g ai/ha): 100
- Ragweed plant response rating (0 to 100 scale) [11, 18]: 100
- Wheat plant response rating (0 to 100 scale) ([12]; Postemergence, 31 g ai/ha): 30
- Wheat plant response rating (0 to 100 scale) [12, 18]: 50
- Foxtail, Giant plant response rating (0 to 100 scale) ([13]; 125 g ai/ha): 100
- Foxtail, Giant plant response rating (0 to 100 scale) [13, 19]: 70
- Pigweed plant response rating (0 to 100 scale) ([14]; 125 g ai/ha): 80
- Pigweed plant response rating (0 to 100 scale) [14, 19]: 50
- Kochia plant response rating (0 to 100 scale) (kochia (Bassia scoparia) [15]; 125 g ai/ha): 100
- Kochia plant response rating (0 to 100 scale) (kochia (Bassia scoparia) [15]; [19]): 0
- Barnyardgrass plant response rating (0 to 100 scale) ([16]; 125 g ai/ha): 80
- Barnyardgrass plant response rating (0 to 100 scale) [16, 19]: 0
- Ryegrass, Italian plant response rating (0 to 100 scale) ([17]; 125 g ai/ha): 100
- Ryegrass, Italian plant response rating (0 to 100 scale) [17, 19]: 40
